The source of these data is ChEMBL document CHEMBL3351330, “Design, synthesis, and in vitro evaluation of an activity-based protein profiling (ABPP) probe targeting agmatine deiminases” (Bioorg Med Chem, 2014).

pIC50: −log10 of the molar value. Activity calls are given as the source filed them. No cut-off for these calls is given here.

In assay [1] the target is T1, Putative agmatine deiminase (Streptococcus mutans serotype c (strain ATCC 700610 / UA159)) (UniProt Q8DW17).
T1 sequence (whole entry): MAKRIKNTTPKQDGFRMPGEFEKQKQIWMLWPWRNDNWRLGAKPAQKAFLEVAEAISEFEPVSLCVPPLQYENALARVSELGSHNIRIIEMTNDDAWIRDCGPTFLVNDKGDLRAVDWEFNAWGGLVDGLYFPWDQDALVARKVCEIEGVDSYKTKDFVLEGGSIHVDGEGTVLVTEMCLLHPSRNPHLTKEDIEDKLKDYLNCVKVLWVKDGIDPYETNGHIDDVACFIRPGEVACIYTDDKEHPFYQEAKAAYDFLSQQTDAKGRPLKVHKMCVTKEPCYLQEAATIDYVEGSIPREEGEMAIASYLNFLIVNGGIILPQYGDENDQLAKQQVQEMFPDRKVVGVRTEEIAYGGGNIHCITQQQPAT
Nature of the assay: Binding affinity to Streptococcus mutans agmatine deiminase in presence of Escherichia coli cell lysates assessed as enzyme photo labeling at 10 uM after 45 mins by coomassie blue staining based gel electrophoresis method.

The target of assay [2] is T1, Putative agmatine deiminase (Streptococcus mutans serotype c (strain ATCC 700610 / UA159)). Nature of the assay: Binding affinity to Streptococcus mutans agmatine deiminase expressed in Escherichia coli assessed as enzyme level detected by compound at 10 uM after 45 mins by coomassie blue staining based gel electrophoresis method.
For assay [3], the target named is T2, Putative agmatine deiminase (Streptococcus mutans serotype c (strain ATCC 700610 / UA159), UniProt Q8DW17).
T2 sequence (Q8DW17 whole entry): T1 sequence (whole entry)
Nature of the assay: Inhibition of Streptococcus mutans agmatine deiminase expressed in Escherichia coli pre-incubated for 15 mins before agmatine substrate addition.

For assay [4], the target named is T1, Putative agmatine deiminase (Streptococcus mutans serotype c (strain ATCC 700610 / UA159)). The assay is described as follows: Binding affinity to Streptococcus mutans agmatine deiminase expressed in Escherichia coli assessed as enzyme photo labeling at 10 uM after 45 mins by coomassie blue staining based gel electrophoresis method.
For assay [5] the target is unchanged. Nature of the assay: Binding affinity to Streptococcus mutans agmatine deiminase in presence of Escherichia coli cell lysates assessed as enzyme level detected by compound at 10 uM after 45 mins by coomassie blue staining based gel electrophoresis method.
For assay [6] the target is unchanged. The assay is described as follows: Binding affinity to Streptococcus mutans agmatine deiminase expressed in Escherichia coli assessed as enzyme photo labeling at 10 uM pre-treated with 10 uM ABCA for 45 mins by coomassie blue staining based gel electrophoresis method.
Assay [7] shares this target. Nature of the assay: Binding affinity to Streptococcus mutans agmatine deiminase expressed in Escherichia coli assessed as enzyme photo labeling at 2 to 10 uM by coomassie blue staining based gel electrophoresis method.
The target is the same in assay [8]. Nature of the assay: Binding affinity to Streptococcus mutans agmatine deiminase expressed in Escherichia coli assessed as enzyme photo labeling at 2 to 10 uM after 45 mins by coomassie blue staining based SDS-PAGE method.

In the case of `N=C(CCl)NCCCCNCCCCCNC(=S)Nc1ccc(-c2c3ccc(=O)cc-3oc3cc(O)ccc23)c(C(=O)O)c1`, the outcome in assay [1], in assay [4], in assay [7] and in assay [8] was Active. The Activity turned out to be 1 pmol in assay [2] and 0.5 pmol in assay [5]. Also, the pIC50 (usually the negative decadic logarithm of the IC50, by convention in mol/L) in assay [3] is 4.97. For the same compound, in assay [6], the result was inactive.
In turn, `N=C(CCl)NCCCCN` had a pIC50 in assay [3] of 6.59.
